Tests used:
NCI-H460 = test: NCI-60 screening, one-dose (10 µM) and five-dose, SRB; assay type: cell-based, human; conditions: Homo sapiens, NCI-H460, 10 μM; NCI-H460, Non-Small-Cell Lung Cancer; read-out: Growth percentage
RXF 393 = test: as above; assay type: cell-based; conditions: Homo sapiens; 10 μM; RXF 393, Renal Cancer; read-out: Growth percentage
NCI/ADR-RES = test: as above; assay type: cell-based, human; conditions: Homo sapiens, 10 μM, Ovarian Cancer, read-out: Growth percentage
786−0 = test: as above; assay type: cell-based, human; conditions: Homo sapiens; 10 μM; 786−0, Renal Cancer; read-out: Growth percentage
PC-3 = test: as above; assay type: cell-based, human; conditions: Homo sapiens; 10 μM; PC-3, Prostate Cancer; read-out: Growth percentage
HL-60(TB) = test: as above; assay type: cell-based, human; conditions: Homo sapiens, HL-60, 10 μM; HL-60(TB), Leukemia; read-out: Growth percentage
MOLT-4 = test: as above; assay type: cell-based, human; conditions: Homo sapiens; 10 μM; MOLT-4, Leukemia; read-out: Growth percentage
SW-620 = test: as above; assay type: cell-based, human; conditions: Homo sapiens; 10 μM; SW-620, Colon Cancer; read-out: Growth percentage
NCI-H23 = test: as above; assay type: cell-based, human; conditions: Homo sapiens; 10 μM; NCI-H23, Non-Small-Cell Lung Cancer; read-out: Growth percentage
RPMI-8226 = test: as above; assay type: cell-based, human; conditions: Homo sapiens, RPMI-8226, 10 μM; RPMI-8226, Leukemia; read-out: Growth percentage
HT29 = test: as above; assay type: cell-based, human; conditions: Homo sapiens, HT-29; 10 μM; HT29, Colon Cancer; read-out: Growth percentage
MDA-MB-468 = test: as above; assay type: cell-based, human; conditions: Homo sapiens, MDA-MB-468, 10 μM; MDA-MB-468, Breast Cancer; read-out: Growth percentage
Description: Control cells Test cells FLD
available usually at NCI library.
An aliquot of frozen drug concentrate is […]

OVCAR-8 = test: as above; assay type: cell-based, human; conditions: Homo sapiens; 10 μM; OVCAR-8, Ovarian Cancer; read-out: Growth percentage
NCI-H322M = test: as above; assay type: cell-based, human; conditions: 10 μM, Non-Small-Cell Lung Cancer
IGROV1 = test: as above; assay type: cell-based, human; conditions: 10 μM; IGROV1, Ovarian Cancer
UACC-62 = test: as above; assay type: cell-based; conditions: Homo sapiens; 10 μM; UACC-62, Melanoma; read-out: Growth percentage
SK-OV-3 = test: as above; assay type: cell-based, human; conditions: Homo sapiens; 10 μM; SK-OV-3, Ovarian Cancer; read-out: Growth percentage
UACC-257 = test: as above; assay type: cell-based, human; conditions: Homo sapiens; 10 μM; UACC-257, Melanoma; read-out: Growth percentage
[1] = test system: 60 human cancer cell lines; test: NCI-60 screening, full panel (mean growth, MID a, ranges over all lines); conditions: Homo sapiens, read-out: Mean growth percentage
Description: The screening was performed in accordance with the protocols set forth by the Drug Evaluation Department of the National Cancer Institute (NCI), Bethesda, USA, for in vitro anticancer efficacy at a single concentration of 10 µM against a panel of 60 cancer cell lines derived from nine distinct organs (https://dctd.cancer.gov/data-tools-biospecimens/data (accessed on 15 March 2023 and 6 January 2024)) [37].
The log10 GI50, log10 TGI, and log10 LC50 values were subsequently calculated as the averages of the log10 values of the respective individual GI50, TGI, and LC50 measurements. Negative numbers signified the most sensitive cell lines.
One way to measure a compound’s selectivity is to divide its subpanel MID^b (in μM) by the MID^a (in μM), which is the average sensitivity of all cell lines to the test agent.
At the National Cancer Institute (NCI) in Bethesda, USA, researchers examined the anticancer potential of the target compounds under investigation using nine panels of sixty different cell lines obtained from nine different cancers that were housed in the NCI library. Following the protocols laid out by the National Cancer Institute (https://dctd.cancer.gov/data-tools-biospecimens/data (accessed on 15 March 2023 and 6 January 2024)), the screening procedures were carried out [37]. The anticancer screening was carried out at a single dose of 10^−5 M; the results obtained were expressed as growth inhibition (%).
The anti-cancer potential of the tested compounds was evaluated at the National cancer institute (NCI), Bethesda, USA, against 9 panels of 60 various cell lines derived from nine human tumours available usually at NCI library. The procedures for the screening were described in details in NCI website (dttp://www.dtp.nci.nih.gov.) and were done according to NCI protocols. The anticancer screening was carried out at single dose of 10^-5 M. The results obtained as growth inhibition (%).
Cell lines were grown in Roswell Park Memorial Institute medium (RPMI) with 5% fetal bovine serum and 2% μM L-glutamine. Cancer cells are inoculated into 96 well microtiter plates in 100 μL at plating densities ranging from 5000 to 40,000 cells/well depending on the doubling time of individual cell lines. Then microtiter plates are incubated at 37 °C, 5% CO2, 95% air and 100% relative humidity for 24 h prior to the addition of the tested compounds. After 24 h, two plates of each cell line are fixed in situ with trichloroacetic acid (TCA). The tested compounds were dissolved in dimethyl sulfoxide (DMSO) and stored in the freezer prior to use. An aliquot of frozen drug concentrate is diluted to the desired concentration with complete medium containing 50 μg/mL gentamicin.

MALME-3M = test: NCI-60 screening, one-dose (10 µM) and five-dose, SRB; assay type: cell-based, human; conditions: 10 μM, Melanoma
HCT-116 = test: as above; assay type: cell-based, human; conditions: Homo sapiens, HCT-116, 10 μM; HCT-116, Colon Cancer; read-out: Growth percentage
A549/ATCC = test: as above; assay type: cell-based, human; conditions: Homo sapiens, 10 μM, Non-Small-Cell Lung Cancer, read-out: Growth percentage
U251 = test: as above; assay type: cell-based, human; conditions: Homo sapiens, U-251; 10 μM; U251, CNS Cancer; read-out: Growth percentage
MCF7 = test: as above; assay type: cell-based, human; conditions: Homo sapiens, MCF7, 10 μM; MCF7, Breast Cancer; read-out: Growth percentage
M14 = test: as above; assay type: cell-based, human; conditions: Homo sapiens; 10 μM; M14, Melanoma; read-out: Growth percentage
SN12C = test: as above; assay type: cell-based, human; conditions: Homo sapiens, 10 μM, Renal Cancer, read-out: Growth percentage
HOP-62 = test: as above; assay type: cell-based, human; conditions: Homo sapiens, HOP-62, 10 μM; HOP-62, Non-Small-Cell Lung Cancer; read-out: Growth percentage

SMILES: CC(=O)c1sc(SCC(=O)N2CCN(c3cc4c(cc3F)c(=O)c(C(=O)O)cn4C3CC3)CC2)nc1C [Compound 4a, 7-(4-(2-((5-Acetyl-4-methylthiazol-2-yl)thio)acetyl)piperazin-1-yl)-1-cyclopropyl-6-fluoro-4-oxo-1,4-dihydroquinoline-3-carboxylic Acid]
- activity at 10 µM (NCI-H460): 104%
- activity at 10 µM (RXF 393): 91.7%
- activity at 10 µM (NCI/ADR-RES): 108%
- activity at 10 µM (786−0): 96.2%
- activity at 10 µM (PC-3): 98.8%
- activity at 10 µM (HL-60(TB)): 102%
- activity at 10 µM (MOLT-4): 102%
- activity at 10 µM (SW-620): 113%
- activity at 10 µM (NCI-H23): 106%
- activity at 10 µM (RPMI-8226): 133%
- activity at 10 µM (HT29): 104%
- activity at 10 µM (MDA-MB-468): 111%
- activity at 10 µM (OVCAR-8): 105%
- Growth percentage (NCI-H322M): 105.5%
- Growth percentage (IGROV1): 115.9%
- activity at 10 µM (UACC-62): 104%
- activity at 10 µM (SK-OV-3): 101%
- activity at 10 µM (UACC-257): 102%
- activity at 10 µM [1]: 102%
- Growth percentage (MALME-3M): 104.9%
- activity at 10 µM (HCT-116): 113%
- activity at 10 µM (A549/ATCC): 104%
- activity at 10 µM (U251): 114%
- activity at 10 µM (MCF7): 94.2%
- activity at 10 µM (M14): 104%
- activity at 10 µM (SN12C): 98%
- activity at 10 µM (HOP-62): 95.6%

Reference: PMC12655637, “Design, Synthesis, and Mechanistic Study of Novel Ciprofloxacin/Thiazole Chalcone Hybrids as Potential Anticancer Agents” (Pharmaceuticals, 2025)
